These results are taken from ChEMBL document CHEMBL1144246, “Design, synthesis and structure-activity relationship of simple bis-amides as potent inhibitors of GlyT1” (Bioorg Med Chem Lett, 2008).

≈ marks a conversion by molar mass, not a printed value.

Data set [1] in a line: Metabolic stability in mouse liver microsomes assessed as intrinsic clearance per mg protein. In kind it is ADME, Microsome. (In general: Liver microsomes are a subcellular fraction often used to study metabolism.)
Data set [2] can be described thus: Aqueous solubility in phosphate buffer at pH 6.5 by lyophilisation solubility assay. In kind it is physicochemical.
Data set [3] in a line: Metabolic stability in human liver microsomes assessed as intrinsic clearance per mg protein. Type of data set: ADME, Microsome.

The microsomal CLint is a measure of how fast metabolising enzymes remove a compound, apart from limits set by blood flow. As a reminder, the solubility is the dissolved amount per volume that the medium holds. A higher solubility goes with much dissolved substance.

On to `N#Cc1ccc(C(=O)NCC(=O)NC(c2ccccc2)c2ccc(Cl)cc2)cc1` (centres undefined), for which the intrinsic clearance (microsomal CLint) in data set [1] came out at 8.6 µL/min/mg. In data set [2], this compound yielded a solubility of 7 µg/mL (≈ 17.3 µM).
For `O=C(CNC(=O)c1ccc(F)cc1)NC(c1cccc(F)c1)c1cccc(F)c1`, the microsomal CLint in data set [3] stood at 9.7 µL/min/mg. This compound displayed a solubility in data set [2] below 1 µg/mL.
In the case of `O=C(CNC(=O)c1ccc(F)cc1)NC(c1ccccc1)c1cccc(C(F)(F)F)c1` (centres undefined), the microsomal CLint in data set [1] was found to be 19.3 µL/min/mg. This compound gave a solubility in data set [2] below 1 µg/mL.
`O=C(CCc1ccccc1)NCC(=O)NC(c1ccccc1)c1ccc(Cl)cc1` (centres undefined): the microsomal CLint is 887 µL/min/mg in data set [3] and 926 µL/min/mg in data set [1]. The same compound came in with a solubility in data set [2] below 1 µg/mL.
